By MIC is commonly meant the smallest concentration in the dilution series that meets the test's criterion for growth inhibition. A low value points to a more susceptible organism.

Test systems include Bacillus subtilis; Bacillus cereus; Shigella dysenteriae; Pseudomonas aeruginosa; Staphylococcus aureus; Bacillus subtilis 168; Escherichia coli B; Staphylococcus aureus MR; Escherichia coli; Acinetobacter baumannii; Escherichia coli UB1005.
Holding throughout (assay): ≥ marks a high value that may be exact or a test limit, other limits are often not marked, values filed in µg/mL are converted to µM
For assay [1], the system named is Staphylococcus aureus ATCC 2592.
In assay [2] the test system is Escherichia coli ATCC 25922.
For assay [3], the system named is Candida albicans ATCC 2002.
Assay [4] concerns Micrococcus luteus ATCC 9341.
The test system of assay [5] is Staphylococcus epidermidis ATCC 12228.
For assay [6], the system named is Staphylococcus aureus ATCC 29213.
Assay [7] relates to Staphylococcus aureus ATCC 25923.
Assay [8] relates to Salmonella enterica subsp. enterica serovar Typhimurium C77-31.

Values after ≈ are worked out from the molar mass of the structure shown.

For the molecule `CC[C@H](C)[C@H](NC(=O)[C@H](CCC(N)=O)NC(=O)[C@H](CCCCN)NC(=O)CNC(=O)[C@H](CC(C)C)NC(=O)[C@H](CCC(N)=O)NC(=O)[C@@H]1CCCN1C(=O)[C@H](CC(C)C)NC(=O)[C@H](CCCCN)NC(=O)[C@H](C)NC(=O)[C@H](CCC(=O)O)NC(=O)[C@H](CCCCN)NC(=O)[C@@H](NC(=O)[C@H](CCSC)NC(=O)[C@@H](NC(=O)[C@@H](NC(=O)[C@@H](NC(=O)[C@@H](N)CO)[C@@H](C)CC)[C@@H](C)CC)[C@@H](C)O)[C@@H](C)O)C(=O)N[C@@H](C)C(=O)N[C@H]1CSSC[C@@H](C(=O)O)NC(=O)[C@H]([C@@H](C)O)NC(=O)[C@H](CC(N)=O)NC(=O)[C@H](Cc2ccc(O)cc2)NC(=O)[C@H](CC(C)C)NC(=O)[C@H](CCCN=C(N)N)NC1=O` [SIITMTKEAKLPQLGKQIACRLYNTC], the MIC in [1] was 10.3 µM (≈ 30 µg/mL); in assay [2] it was 41 µM (≈ 120 µg/mL); against Bacillus subtilis it was at least 41 µM; in assay [3] it was 20.5 µM (≈ 60 µg/mL).
As for `CSCC[C@H](NC(=O)[C@H](CO)NC(=O)[C@H](Cc1ccc(O)cc1)NC(=O)[C@H](C)NC(=O)[C@@H](N)CCCCN)C(=O)N1CCC[C@H]1C(=O)N[C@@H](CCCN=C(N)N)C(=O)N[C@H]1CSSC[C@@H](C(=O)N[C@@H](Cc2c[nH]c3ccccc23)C(=O)N[C@@H](CC(C)C)C(N)=O)NC(=O)[C@H](CC(C)C)NC(=O)[C@H](C(C)C)NC(=O)[C@H](C)NC(=O)[C@H](CCCN=C(N)N)NC(=O)[C@H](Cc2ccccc2)NC(=O)[C@H](CC(C)C)NC(=O)[C@H](Cc2ccc(O)cc2)NC(=O)[C@H](CCCCN)NC1=O` [KAYSMPRCKYLFRAVLCWL], the MIC against Bacillus cereus was 21.3 µM (≈ 49.9 µg/mL); in [1] it was 5.32 µM (≈ 12.5 µg/mL); in [2], 10.6 µM (≈ 25 µg/mL); against Shigella dysenteriae it was 5.32 µM (≈ 12.5 µg/mL); against Pseudomonas aeruginosa it was 10.6 µM (≈ 25 µg/mL); in [3], at least 42.6 µM.
Consider `CC[C@H](C)[C@H](NC(=O)[C@H](CCCCN)NC(=O)[C@H](C)NC(=O)[C@H](CC(C)C)NC(=O)[C@@H](NC(=O)[C@H](CCCCN)NC(=O)[C@H](CCCCN)NC(=O)[C@H](Cc1c[nH]c2ccccc12)NC(=O)[C@H](CC(N)=O)NC(=O)[C@@H](N)C(C)C)C(C)C)C(=O)N[C@H](C(=O)N[C@@H](CCCCN)C(=O)N[C@H](C(=O)N[C@@H](C)C(=O)N[C@@H](CCCCN)C(N)=O)C(C)C)[C@@H](C)CC` [VNWKKVLAKIIKVAK], for which the MIC with Staphylococcus aureus was 7.2 µM (≈ 12.5 µg/mL); in the assay on Bacillus subtilis 168 it was 0.6 µM (≈ 1.04 µg/mL); in the assay on Pseudomonas aeruginosa it was 26.9 µM (≈ 46.7 µg/mL); against Escherichia coli B it was 0.7 µM (≈ 1.22 µg/mL).
In the case of `CC[C@H](C)[C@H](NC(=O)[C@@H]1CCCN1C(=O)[C@@H](NC(=O)[C@@H](N)C(C)C)[C@@H](C)CC)C(=O)N[C@H](C(=O)N[C@@H](CO)C(=O)NCC(=O)N[C@@H](CC(C)C)C(=O)N[C@@H](CC(C)C)C(=O)N[C@@H](CO)C(=O)N[C@@H](CO)C(=O)N[C@@H](CC(C)C)C(=O)N[C@@H](CC(C)C)C(N)=O)C(C)C` [VIPIVSGLLSSLL], the MIC in assay [1] stood at 4.77 µM (≈ 6.25 µg/mL); in assay [2] it was 9.54 µM (≈ 12.5 µg/mL).
With `CC(C)C[C@H](NC(=O)[C@H](C)N)C(=O)N1CCC[C@H]1C(=O)N[C@@H](Cc1c[nH]c2ccccc12)C(=O)N[C@@H](CCCCN)C(=O)N[C@@H](Cc1c[nH]c2ccccc12)C(=O)N1CCC[C@H]1C(=O)N[C@@H](Cc1c[nH]c2ccccc12)C(=O)N[C@@H](Cc1c[nH]c2ccccc12)C(=O)N1CCC[C@H]1C(=O)N[C@@H](Cc1c[nH]c2ccccc12)C(=O)N[C@@H](CCCN=C(N)N)C(=O)N[C@@H](CCCN=C(N)N)C(N)=O` [ALPWKWPWWPWRR], the MIC in assay [4] was 0.4 µM (≈ 0.746 µg/mL).
Turning to `CC[C@H](C)[C@@H]1NC(=O)[C@H](CCCCN)NC(=O)[C@@H](NC(=O)[C@H](Cc2ccccc2)NC(=O)[C@H](CC(C)C)NC(=O)[C@H](CCCCN)NC(=O)[C@@H]2CCCN2C(=O)[C@H](CC(C)C)NC(=O)[C@H](Cc2ccccc2)NC(=O)[C@H](CC(N)=O)NC(=O)[C@H](C)NC(=O)[C@H](C)NC(=O)[C@H](CC(C)C)NC(=O)[C@H](CO)NC(=O)[C@@H](NC(=O)[C@H](C)NC(=O)[C@H](CC(C)C)NC(=O)[C@@H]2CCCN2C(=O)[C@H](CC(C)C)NC(=O)[C@@H](N)Cc2ccccc2)C(C)C)CSSC[C@@H](C(=O)O)NC(=O)[C@H](CCCCN)NC(=O)[C@H](CCCCN)NC(=O)[C@H]([C@@H](C)O)NC1=O` [FLPLAVSLAANFLPKLFCKITKKC], the minimal inhibitory concentration (MIC) in [1] stood at 2.06 µM (≈ 5.5 µg/mL); in [2] it was 2.44 µM (≈ 6.5 µg/mL); with Shigella dysenteriae, 0.825 µM (≈ 2.2 µg/mL); in [3], 2.81 µM (≈ 7.49 µg/mL).
Take `CC[C@H](C)[C@H](N)C(=O)N[C@@H](CC(C)C)C(=O)N1CCC[C@H]1C(=O)N[C@@H](Cc1c[nH]c2ccccc12)C(=O)N[C@@H](CCCCN)C(=O)N[C@@H](Cc1c[nH]c2ccccc12)C(=O)N1CCC[C@H]1C(=O)N[C@@H](Cc1c[nH]c2ccccc12)C(=O)N[C@@H](Cc1c[nH]c2ccccc12)C(=O)N1CCC[C@H]1C(=O)N[C@@H](Cc1c[nH]c2ccccc12)C(=O)N[C@@H](CCCCN)C(=O)N[C@@H](CCCCN)C(N)=O` [ILPWKWPWWPWKK]: the MIC in assay [2] turned out to be 16 µM (≈ 29.6 µg/mL); in [4], 0.4 µM (≈ 0.74 µg/mL).
Turning to `CC[C@H](C)[C@H](NC(=O)[C@H](CC(C)C)NC(=O)[C@H](CCCCN)NC(=O)CNC(=O)[C@H](CC(C)C)NC(=O)[C@@H](NC(=O)[C@H](CCCCN)NC(=O)[C@H](CO)NC(=O)[C@H](Cc1c[nH]c2ccccc12)NC(=O)[C@H](CCCCN)NC(=O)CN)[C@@H](C)CC)C(=O)N[C@@H](CCCN=C(N)N)C(N)=O` [GKWSKILGKLIR], the MIC against Staphylococcus aureus was found to be 21.7 µM (≈ 30.3 µg/mL); against Bacillus subtilis 168 it was 1.7 µM (≈ 2.38 µg/mL); against Pseudomonas aeruginosa it was 28.3 µM (≈ 39.6 µg/mL); with Escherichia coli B it was 2.3 µM (≈ 3.21 µg/mL).
`CC[C@H](C)[C@@H]1NC(=O)[C@H](CCCCN)NC(=O)[C@@H](NC(=O)[C@H](CCCCN)NC(=O)[C@H](CC(C)C)NC(=O)[C@@H](NC(=O)[C@H](CC(=O)O)NC(=O)[C@H](CC(C)C)NC(=O)[C@H](CC(C)C)NC(=O)[C@H](CCC(N)=O)NC(=O)CNC(=O)[C@H](C)NC(=O)[C@@H](NC(=O)[C@H](CCCCN)NC(=O)[C@H](CCCCN)NC(=O)[C@H](CC(C)C)NC(=O)CNC(=O)[C@H](CCC(=O)O)NC(=O)[C@H](CCCCN)NC(=O)[C@@H](NC(=O)[C@H](CO)NC(=O)[C@H](CC(=O)O)NC(=O)[C@H](CC(C)C)NC(=O)[C@H](CC(C)C)NC(=O)CN)C(C)C)C(C)C)[C@@H](C)O)CSSC[C@@H](C(=O)N[C@H](C(=O)N2CCC[C@H]2C(=O)N[C@@H](C)C(=O)O)[C@@H](C)O)NC(=O)CNC(=O)[C@H](CO)NC1=O` [GLLDSVKEGLKKVAGQLLDTLKCKISGCTPA]: the MIC was determined as 1.98 µM (≈ 6.3 µg/mL) in [1], 1.98 µM (≈ 6.3 µg/mL) in assay [2], 7.84 µM (≈ 25 µg/mL) in the assay on Bacillus subtilis and 3.92 µM (≈ 12.5 µg/mL) in assay [3].
`CC[C@H](C)[C@H](NC(=O)[C@H](C)NC(=O)[C@H](CC(C)C)NC(=O)[C@H](CC(C)C)NC(=O)[C@H](CC(C)C)NC(=O)[C@H](C)N)C(=O)N[C@@H](CCCN=C(N)N)C(=O)N[C@@H](CCCCN)C(=O)N[C@@H](CCCN=C(N)N)C(N)=O` [ALLLAIRKR]: the MIC was at least 38 µM in the assay with Staphylococcus aureus MR, 3.8 µM (≈ 4 µg/mL) in the assay on Staphylococcus aureus, 5.7 µM (≈ 5.99 µg/mL) in the assay with Escherichia coli and 3.8 µM (≈ 4 µg/mL) with Pseudomonas aeruginosa.
Consider `CC[C@H](C)[C@H](NC(=O)[C@H](CCCCN)NC(=O)[C@H](CCCCN)NC(=O)[C@H](Cc1c[nH]c2ccccc12)NC(=O)[C@H](CC(N)=O)NC(=O)[C@@H](N)C(C)C)C(=O)N[C@@H](CC(C)C)C(=O)N1CCC[C@H]1C(=O)N[C@@H](CCCCN)C(=O)N[C@H](C(=O)N[C@H](C(=O)N[C@@H](CCCCN)C(=O)N[C@H](C(=O)N[C@@H](C)C(=O)N[C@@H](CCCCN)C(N)=O)C(C)C)[C@@H](C)CC)[C@@H](C)CC` [VNWKKILPKIIKVAK], for which the minimal inhibitory concentration (MIC) was determined as 80 µM (≈ 142 µg/mL) with Staphylococcus aureus, 0.7 µM (≈ 1.24 µg/mL) with Bacillus subtilis 168, 100 µM (≈ 178 µg/mL) with Pseudomonas aeruginosa and 2.5 µM (≈ 4.44 µg/mL) with Escherichia coli B.
On to `CC[C@H](C)[C@H](NC(=O)[C@H](CCCN=C(N)N)NC(=O)[C@H](Cc1c[nH]c2ccccc12)NC(=O)[C@H](CCCN=C(N)N)NC(=O)[C@@H](NC(=O)[C@H](CCCCN)NC(=O)[C@H](Cc1c[nH]c2ccccc12)NC(=O)[C@H](CCCN=C(N)N)NC(=O)[C@@H](NC(=O)[C@H](CCCN=C(N)N)NC(=O)[C@@H](N)Cc1c[nH]c2ccccc12)[C@@H](C)CC)[C@@H](C)O)C(=O)N[C@@H](CCCCN)C(N)=O` [WRIRWKTRWRIK], for which the MIC in [5] is 2 µM (≈ 3.57 µg/mL); in [2], 4 µM (≈ 7.14 µg/mL); in assay [6], 2 µM (≈ 3.57 µg/mL); against Staphylococcus aureus, 2 µM (≈ 3.57 µg/mL); in assay [7], 2 µM (≈ 3.57 µg/mL); in the assay on Escherichia coli, 2 µM (≈ 3.57 µg/mL). Besides, the MIC in assay [8] was determined as 2 µM (≈ 3.57 µg/mL); in the assay with Acinetobacter baumannii it was 2 µM (≈ 3.57 µg/mL); against Escherichia coli UB1005, 2 µM (≈ 3.57 µg/mL); with Pseudomonas aeruginosa it was 8 µM (≈ 14.3 µg/mL).

The values above are taken from DBAASP.
